Assay results taken from the supplement of paper PMC10307832.

How the values were obtained:
Assay in all cases: relative viability (nuclei count vs DMSO), 5 days (fraction); higher = more cells survive
[1] = compound: NC(=O)c1ccc(N(C(N)=O)c2c(F)cccc2F)nc1-c1ccc(F)cc1F [VX-702] + CC1(C)CCC(c2ccc(Cl)cc2)=C(CN2CCN(c3ccc(C(=O)NS(=O)(=O)c4ccc(N[C@H](CCN5CCOCC5)CSc5ccccc5)c(S(=O)(=O)C(F)(F)F)c4)cc3)CC2)C1 [Navitoclax] (partner 0.5 µM)
Procedure, shortened: (§1)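 Each reported value is a median over duplicate plates. It expresses relative viability: treated-well nuclei count divided by vehicle-well nuclei count. Lung cancer cell lines in 1536-well plates were dosed by pin tool a day after seeding, alone with one drug or with a fixed anchor-drug dose plus five library-drug doses (not always all listed) in √10 steps, and nuclei were counted after 5 days.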

[2] = compound: NC(=O)c1ccc(N(C(N)=O)c2c(F)cccc2F)nc1-c1ccc(F)cc1F [VX-702] + C[C@@H](Oc1cc(-c2cnn(C3CCNCC3)c2)cnc1N)c1c(Cl)ccc(F)c1Cl [Crizotinib] (partner 1 µM)
Procedure, shortened: as §1

[3] = compound: CC(C)(C)c1nc(-c2cccc(NS(=O)(=O)c3c(F)cccc3F)c2F)c(-c2ccnc(N)n2)s1 [Dabrafenib] + Cc1cc(Nc2cc(N3CCN(C)CC3)nc(Sc3ccc(NC(=O)C4CC4)cc3)n2)n[nH]1 [Tozasertib] (partner 0.1 µM)
Procedure, shortened: as §1

[4] = compound: NC(=O)c1ccc(N(C(N)=O)c2c(F)cccc2F)nc1-c1ccc(F)cc1F [VX-702] + Nc1nc2[nH]cc(CCc3ccc(C(=O)N[C@@H](CCC(=O)O)C(=O)O)cc3)c2c(=O)[nH]1 [Pemetrexed] (partner 0.2 µM)
Procedure, shortened: as §1

Cell Line	relative viability ([1]; first compound 0.02 µM)	relative viability ([1]; first compound 0.2 µM)	relative viability ([1]; first compound 0.6325 µM)	relative viability ([1]; first compound 2 µM)	relative viability ([2]; first compound 0.02 µM)	relative viability ([2]; first compound 0.2 µM)	relative viability ([2]; first compound 0.6325 µM)	relative viability ([2]; first compound 2 µM)	relative viability ([3]; first compound 0.003 µM)	relative viability ([3]; first compound 0.009487 µM)	relative viability ([3]; first compound 0.03 µM)	relative viability ([3]; first compound 0.09487 µM)	relative viability ([3]; first compound 0.3 µM)	relative viability ([4]; first compound 0.02 µM)	relative viability ([4]; first compound 0.2 µM)	relative viability ([4]; first compound 0.6325 µM)	relative viability ([4]; first compound 2 µM)
NCI-H1651	0.933	0.96	0.982	1.27	0.79	0.889	0.831	0.935	0.741	0.763	0.57	0.668	0.679	0.523	0.57	0.559	0.566
NCI-H1666	0.883	0.884	0.843	1.02	1.1	0.923	1.03	1.12	0.562	0.637	0.678	0.672	0.672	0.869	0.869	0.89	0.808
NCI-H1734	0.814	0.695	0.685	0.743	0.593	0.55	0.573	0.71		0.248	0.251	0.312	0.271	0.386	0.377	0.413	0.409
NCI-H1755	1.08	0.971	1.05	1.04	0.919	0.784	0.894	0.972	0.555	0.659	0.539	0.559	0.614	0.473	0.404	0.384	0.378
NCI-H1915	0.766	0.725	0.849	0.916	0.868	0.845	0.913	0.944	0.46	0.458	0.391	0.328	0.41	0.519	0.476	0.446	0.455
NCI-H1944	1.04	1.03	1.15	0.973	0.963	1.01	0.985	0.829	0.252	0.262	0.233	0.254	0.239	0.58	0.603	0.635	0.382
NCI-H1975	1.09	1.06	1.08	1.23	0.919	0.982	0.889	1.14	0.778	0.769	0.714	0.659	0.689	0.312	0.296	0.301	0.287
NCI-H1993	0.805	0.874	0.896	0.835	0.882	0.717	0.852	0.792	0.484	0.586	0.504	0.571	0.606	0.646	0.529	0.523	0.563
